Tested on: hypertensive subjects
Assay: Seated automated office blood pressure (AOBP) in randomized, placebo-controlled, dose-ranging study
Type: in vivo, human
Details: 100 mg QD; for Mean Automated Office-Measured Systolic Blood Pressure at Wk 8 / Mean Change from Baseline at Week 8 in Automated Office-Measured Systolic Blood Pressure / Automated Office-Measured Diastolic Blood Pressure, Week 8, mean / Change from Baseline at Week 8 in Automated Office-Measured Diastolic Blood Pressure, mean: Part 2
Experimental: A randomized, double-blinded, placebo-controlled, dose-ranging, multicenter study was conducted to evaluate the effect of orally administered Compound A HBr on blood pressure for the treatment of hypertension in male and female subjects ≥18 years of age.
The study consists of two parts. For enrollment into Part 1 of the study, a subject's value of plasma renin activity (PRA) must be ≤1 ng/mL/h based on morning measurement. If the value of PRA >1 ng/mL/h based on morning measurement, then subjects may be eligible to enter Part 2 of the study.
For Part 1, 163 enrolled subjects ≥18 years of age were randomized into 6 equal treatment groups (1:1:1:1:1:1) to 12.5 mg BID, 25 mg BID, 12.5 mg QD, 50 mg QD, 100 mg QD, or placebo. After a review of interim clinical data, the 2 lowest dose levels (12.5 mg QD and 12.5 mg BID) were stopped for future randomization due to a lack of consistent meaningful reduction of blood pressure, but the patients randomized to that point remained in the study through completion. Thus, after the review of interim clinical data, subjects were randomized into 4 equal treatment groups (1:1:1:1) to 25 mg BID, 50 mg QD, 100 mg QD, or placebo.
For Part 2, 36 enrolled subjects ≥18 years of age were randomized (5:1) to either 100 mg QD Compound A HBr or placebo such that the Compound A HBr treatment group consisted of approximately 30 subjects and the placebo treatment group will consist of approximately 6 subjects.
Subjects orally administered the assigned study drug (Compound A HBr or placebo) according to the assigned dosing regimen for 8 weeks beginning on Study Day 1. All subjects in Part 1 (regardless of dosing group) received BID dosing to preserve the integrity of the blind; active drug is administered as the morning dose for all QD dose groups. Subjects returned to the research facility or were seen by the clinical investigator or approved home health care professional at the end of Study Weeks 1, 2, 3, 4, 5, 6, 7, and 8 (±2 days) for protocol-defined efficacy and safety assessments and procedures, assessment of adverse events (AEs), and confirmation of compliance with study drug usage. Subjects also completed a telephone visit and blood pressure (BP) check at home approximately 3 days post last dose of study drug. Subjects attended up to 14 full clinic visits, including a pre-Screening visit, a Screening/start of Placebo Run-in visit, a second visit during Placebo Run-in, a clinic visit to initiate the ABPM procedure, a Randomization visit, 8 weekly visits during double-blind treatment, and an end-of-study visit scheduled 4 weeks after the last study treatment for final efficacy and safety assessments.
An automated oscillometric sphygmomanometer device was used to measure the subjects' systolic and diastolic blood pressure in office after approximately 5 minutes of rest in the seated position.
The primary endpoint is the change in office-measured (mean of last 2 of 5 unattended measurements using an automated oscillometric sphygmomanometer device after approximately 5 minutes of rest in the seated position) systolic blood pressure (SBP) from baseline to the end of Study Week 8.
Secondary endpoints of this study were: • (a) Change in 24-hour ambulatory blood pressure monitoring (ABPM) parameters (systolic and diastolic) from baseline to the end of Study Week 7. • (b) Change in office-measured SBP from baseline to the end of Study Weeks 1, 2, 3, 4, 5, 6, and 7. • (c) Change in office-measured diastolic blood pressure (DBP) from baseline to the end of Study Weeks 1, 2, 3, 4, 5, 6, 7, and 8. • (d) Proportion of subjects who achieve office-measured BP of ≤130/80 mm Hg by the end of Study Week 8.

[1] = Part 1, Thiazide Diuretic Use at Baseline No
[2] = Part 1, Thiazide Diuretic Use at Baseline Yes
[3] = Systolic Blood Pressure Tertile at Baseline High
[4] = Systolic Blood Pressure Tertile at Baseline Low
[5] = Systolic Blood Pressure Tertile at Baseline Middle
[6] = Thiazide Diuretic Use at Baseline No
[7] = Thiazide Diuretic Use at Baseline Yes

## CC(=O)N[C@H]1CC[C@H](NC(=O)CN2CCN(c3nncc(-c4ccc(C)cc4)n3)CC2)CC1 [Compound A HBr]
[1]
  Mean (SD) Change from Baseline at Week 8 in Automated Office-Measured Diastolic Blood Pressure: −4.00 (6.33) mmHg
  Mean (SD) Change from Baseline at Week 8 in Automated Office-Measured Systolic Blood Pressure: −9.15 (9.27) mmHg
[2]
  Automated Office-Measured Diastolic Blood Pressure, Week 8, Mean (SD): 73.40 (8.98) mmHg
  Mean (SD) Automated Office-Measured Systolic Blood Pressure at Wk 8: 128.27 (16.26) mmHg
  Mean (SD) Change from Baseline at Week 8 in Automated Office-Measured Diastolic Blood Pressure: −6.43 (8.79) mmHg
  Mean (SD) Change from Baseline at Week 8 in Automated Office-Measured Systolic Blood Pressure: −17.37 (14.74) mmHg
ACEi/ARB No
  Mean Automated Office-Measured Systolic Blood Pressure at Wk 8: 131.00 mmHg
  Mean Change from Baseline at Week 8 in Automated Office-Measured Systolic Blood Pressure: −4.00 mmHg
ACEi/ARB Yes
  Mean Automated Office-Measured Systolic Blood Pressure at Wk 8: 129.24 mmHg
  Mean Change from Baseline at Week 8 in Automated Office-Measured Systolic Blood Pressure: −11.45 mmHg
AHTs 2
  Mean Automated Office-Measured Systolic Blood Pressure at Wk 8: 127.84 mmHg
  Mean Change from Baseline at Week 8 in Automated Office-Measured Systolic Blood Pressure: −10.37 mmHg
AHTs ≥3
  Mean Automated Office-Measured Systolic Blood Pressure at Wk 8: 131.82 mmHg
  Mean Change from Baseline at Week 8 in Automated Office-Measured Systolic Blood Pressure: −12.64 mmHg
Age 65-79 yr
  Mean Automated Office-Measured Systolic Blood Pressure at Wk 8: 132.81 mmHg
  Mean Change from Baseline at Week 8 in Automated Office-Measured Systolic Blood Pressure: −9.69 mmHg
Age <65 yr
  Mean Automated Office-Measured Systolic Blood Pressure at Wk 8: 120.88 mmHg
  Mean Change from Baseline at Week 8 in Automated Office-Measured Systolic Blood Pressure: −13.06 mmHg
Age ≥80 yr
  Mean Automated Office-Measured Systolic Blood Pressure at Wk 8: 123.00 mmHg
  Mean Change from Baseline at Week 8 in Automated Office-Measured Systolic Blood Pressure: −28.00 mmHg
BMI at baseline 25-30 kg/m^2
  Mean Automated Office-Measured Systolic Blood Pressure at Wk 8: 126.80 mmHg
  Mean Change from Baseline at Week 8 in Automated Office-Measured Systolic Blood Pressure: −14.60 mmHg
BMI at baseline <25 kg/m^2
  Mean Automated Office-Measured Systolic Blood Pressure at Wk 8: 130.00 mmHg
  Mean Change from Baseline at Week 8 in Automated Office-Measured Systolic Blood Pressure: −6.50 mmHg
BMI at baseline >30 kg/m^2
  Mean Automated Office-Measured Systolic Blood Pressure at Wk 8: 132.08 mmHg
  Mean Change from Baseline at Week 8 in Automated Office-Measured Systolic Blood Pressure: −8.00 mmHg
Race Black or AA
  Mean Automated Office-Measured Systolic Blood Pressure at Wk 8: 125.83 mmHg
  Mean Change from Baseline at Week 8 in Automated Office-Measured Systolic Blood Pressure: −15.83 mmHg
Race Other
  Mean Automated Office-Measured Systolic Blood Pressure at Wk 8: 130.17 mmHg
  Mean Change from Baseline at Week 8 in Automated Office-Measured Systolic Blood Pressure: −10.04 mmHg
Sex Female
  Mean Automated Office-Measured Systolic Blood Pressure at Wk 8: 127.90 mmHg
  Mean Change from Baseline at Week 8 in Automated Office-Measured Systolic Blood Pressure: −11.15 mmHg
Sex Male
  Mean Automated Office-Measured Systolic Blood Pressure at Wk 8: 132.10 mmHg
  Mean Change from Baseline at Week 8 in Automated Office-Measured Systolic Blood Pressure: −11.30 mmHg
[3]
  Mean Automated Office-Measured Systolic Blood Pressure at Wk 8: 132.36 mmHg
  Mean Change from Baseline at Week 8 in Automated Office-Measured Systolic Blood Pressure: −17.05 mmHg
[4]
  Mean Automated Office-Measured Systolic Blood Pressure at Wk 8: 124.11 mmHg
  Mean Change from Baseline at Week 8 in Automated Office-Measured Systolic Blood Pressure: −7.56 mmHg
[5]
  Mean Automated Office-Measured Systolic Blood Pressure at Wk 8: 130.60 mmHg
  Mean Change from Baseline at Week 8 in Automated Office-Measured Systolic Blood Pressure: −8.05 mmHg
[6]
  Automated Office-Measured Diastolic Blood Pressure, Week 8, mean: 68.42 mmHg
  Change from Baseline at Week 8 in Automated Office-Measured Diastolic Blood Pressure, mean: −8.13 mmHg
  Mean Automated Office-Measured Systolic Blood Pressure at Wk 8: 125.67 mmHg
  Mean Change from Baseline at Week 8 in Automated Office-Measured Systolic Blood Pressure: −12.25 mmHg
[7]
  Automated Office-Measured Diastolic Blood Pressure, Week 8, mean: 74.67 mmHg
  Change from Baseline at Week 8 in Automated Office-Measured Diastolic Blood Pressure, mean: −4.06 mmHg

— patent US20260053811A1, “METHODS OF TREATING HYPERTENSION IN OBESE SUBJECTS” (Mineralys Therapeutics, Inc., priority 2022, published 2026)
